Results published in the NIST ThermoML archive (doi:10.1016/j.tca.2006.10.025).
Numbers after ± are expanded uncertainties.

Tests used:
[1] = molar heat capacity at constant pressure; conditions: 101.33 kPa, Liquid, Small sample (50 mg) DSC
[2] = 303.15 K; 101.33 kPa; Liquid; Vibrating tube method
[3] = molar heat capacity at constant pressure; xn = mol fraction of the nth substance listed; conditions: 303.15 K, 101 kPa, Liquid, Small sample (50 mg) DSC
[4] = excess molar enthalpy (molar enthalpy of mixing); xn = mol fraction of the nth substance listed; conditions: 303.15 K, 101 kPa, Liquid, Flow calorimetry

CCCCO [butan-1-ol]
[1]
Conditions	molar heat capacity at constant pressure [J/K/mol]
288.15 K	166.2 ± 2.6
293.15 K	171.8 ± 2.7
298.15 K	175.3 ± 2.7
303.15 K	178.9 ± 2.8
308.15 K	182.8 ± 2.8
313.15 K	186.6 ± 2.9
318.15 K	190.8 ± 3
323.15 K	194.7 ± 3

Conditions	mass density [kg/m3]
[2]	801.98 ± 0.21

CCCCCCCCCCO [decan-1-ol]
[1]
Conditions	molar heat capacity at constant pressure [J/K/mol]
288.15 K	360.1 ± 5.6
293.15 K	368.5 ± 5.7
298.15 K	373.9 ± 5.8
303.15 K	379.3 ± 5.9
308.15 K	385.3 ± 6
313.15 K	390.6 ± 6.1
318.15 K	395.9 ± 6.1
323.15 K	401.3 ± 6.2

Conditions	mass density [kg/m3]
[2]	822.95 ± 0.31

CCCCCCCCCCO [decan-1-ol] + C[S+](C)[O-]
Conditions	excess molar enthalpy [kcal/mol]	molar heat capacity at constant pressure [J/K/mol]
[3], x2 = 0.0868	–	355.3 ± 5.5
[3], x2 = 0.1641	–	338 ± 5.2
[3], x2 = 0.2592	–	316.3 ± 4.9
[3], x2 = 0.4231	–	282.4 ± 4.4
[3], x2 = 0.5259	–	259.2 ± 4
[3], x2 = 0.6431	–	235.2 ± 3.6
[3], x2 = 0.7082	–	221.4 ± 3.4
[3], x2 = 0.7997	–	201 ± 3.1
[3], x2 = 0.8618	–	186.2 ± 2.9
[3], x2 = 0.8908	–	179.2 ± 2.8
[3], x2 = 0.9159	–	172.9 ± 2.7
[3], x2 = 0.9596	–	162.1 ± 2.5
[4], x2 = 0.1006	0.111 ± 0.00191	–
[4], x2 = 0.1828	0.209 ± 0.00287	–
[4], x2 = 0.2512	0.277 ± 0.00359	–
[4], x2 = 0.3091	0.317 ± 0.00406	–
[4], x2 = 0.4016	0.353 ± 0.00454	–
[4], x2 = 0.4722	0.364 ± 0.00454	–
[4], x2 = 0.573	0.36 ± 0.00454	–
[4], x2 = 0.6414	0.353 ± 0.00454	–
[4], x2 = 0.7286	0.328 ± 0.00406	–
[4], x2 = 0.8011	0.301 ± 0.00382	–
[4], x2 = 0.843	0.271 ± 0.00359	–
[4], x2 = 0.8895	0.228 ± 0.00311	–
[4], x2 = 0.9148	0.196 ± 0.00287	–
[4], x2 = 0.9416	0.15 ± 0.00263	–
[4], x2 = 0.9555	0.118 ± 0.00287	–
[4], x2 = 0.9699	0.0846 ± 0.00263	–
[4], x2 = 0.9847	0.0457 ± 0.00263	–

C[S+](C)[O-] [dimethyl sulfoxide]
[1]
Conditions	molar heat capacity at constant pressure [J/K/mol]
288.15 K	147.8 ± 2.3
293.15 K	149.4 ± 2.3
298.15 K	151.5 ± 2.3
303.15 K	152.4 ± 2.4
308.15 K	153.4 ± 2.4
313.15 K	155.4 ± 2.4
318.15 K	155.6 ± 2.4
323.15 K	156.6 ± 2.4

Conditions	mass density [kg/m3]
[2]	1090.45 ± 0.11

C[S+](C)[O-] [dimethyl sulfoxide] + CCCCO
Conditions	excess molar enthalpy, [4] [kcal/mol]	molar heat capacity at constant pressure, [3] [J/K/mol]
x1 = 0.051	0.0715 ± 0.00143	–
x1 = 0.0874	–	175.2 ± 2.7
x1 = 0.097	0.124 ± 0.00191	–
x1 = 0.1288	–	172.3 ± 2.7
x1 = 0.1385	0.164 ± 0.00215	–
x1 = 0.1769	0.189 ± 0.00239	–
x1 = 0.2324	–	167 ± 2.6
x1 = 0.2438	0.221 ± 0.00287	–
x1 = 0.3007	0.236 ± 0.00311	–
x1 = 0.364	–	161.2 ± 2.5
x1 = 0.3921	0.255 ± 0.00335	–
x1 = 0.4541	–	158 ± 2.4
x1 = 0.4622	0.254 ± 0.00311	–
x1 = 0.5633	0.245 ± 0.00311	–
x1 = 0.5775	–	155.4 ± 2.4
x1 = 0.6568	–	152.7 ± 2.4
x1 = 0.6594	0.223 ± 0.00287	–
x1 = 0.7207	0.201 ± 0.00263	151.6 ± 2.3
x1 = 0.7577	–	150.8 ± 2.3
x1 = 0.7947	0.171 ± 0.00215	–
x1 = 0.8377	0.144 ± 0.00191	–
x1 = 0.8537	–	150.3 ± 2.3
x1 = 0.8856	0.112 ± 0.00167	–
x1 = 0.9117	0.0901 ± 0.00143	–
x1 = 0.919	–	150 ± 2.3
x1 = 0.9393	0.0652 ± 0.00143	–
x1 = 0.9542	–	151.5 ± 2.3
x1 = 0.9687	0.0356 ± 0.0012	–

C[S+](C)[O-] [dimethyl sulfoxide] + CCCO
Conditions	excess molar enthalpy [kcal/mol]	molar heat capacity at constant pressure [J/K/mol]
[3], x1 = 0.0514	–	146.2 ± 2.3
[3], x1 = 0.1127	–	144 ± 2.2
[3], x1 = 0.2114	–	141.8 ± 2.2
[3], x1 = 0.3163	–	142.6 ± 2.2
[3], x1 = 0.418	–	139.9 ± 2.2
[3], x1 = 0.5029	–	140.6 ± 2.2
[3], x1 = 0.6216	–	140.7 ± 2.2
[3], x1 = 0.7068	–	141.6 ± 2.2
[3], x1 = 0.7975	–	144.2 ± 2.2
[3], x1 = 0.8537	–	145.6 ± 2.3
[3], x1 = 0.8994	–	146.5 ± 2.3
[3], x1 = 0.9429	–	147.6 ± 2.3
[4], x1 = 0.0421	0.0449 ± 0.0012	–
[4], x1 = 0.0808	0.0803 ± 0.00143	–
[4], x1 = 0.1165	0.109 ± 0.00167	–
[4], x1 = 0.1495	0.134 ± 0.00191	–
[4], x1 = 0.2086	0.163 ± 0.00215	–
[4], x1 = 0.2601	0.184 ± 0.00239	–
[4], x1 = 0.3452	0.204 ± 0.00263	–
[4], x1 = 0.4127	0.21 ± 0.00263	–
[4], x1 = 0.5133	0.205 ± 0.00263	–
[4], x1 = 0.6128	0.189 ± 0.00239	–
[4], x1 = 0.6783	0.171 ± 0.00215	–
[4], x1 = 0.7598	0.136 ± 0.00191	–
[4], x1 = 0.8084	0.118 ± 0.00167	–
[4], x1 = 0.8634	0.0884 ± 0.0012	–
[4], x1 = 0.894	0.0722 ± 0.0012	–
[4], x1 = 0.9268	0.0521 ± 0.000956	–
[4], x1 = 0.962	0.0282 ± 0.000717	–

C[S+](C)[O-] [dimethyl sulfoxide] + CCO
Conditions	excess molar enthalpy [kcal/mol]	molar heat capacity at constant pressure [J/K/mol]
[3], x1 = 0.0356	–	117.9 ± 1.8
[3], x1 = 0.0504	–	119.1 ± 1.8
[3], x1 = 0.1092	–	121.7 ± 1.9
[3], x1 = 0.1636	–	121.8 ± 1.9
[3], x1 = 0.2647	–	124.6 ± 1.9
[3], x1 = 0.3441	–	126.3 ± 2
[3], x1 = 0.4469	–	129.9 ± 2
[3], x1 = 0.557	–	133 ± 2.1
[3], x1 = 0.6498	–	136.8 ± 2.1
[3], x1 = 0.7615	–	141 ± 2.2
[3], x1 = 0.8872	–	146.6 ± 2.3
[3], x1 = 0.9408	–	148 ± 2.3
[4], x1 = 0.0332	0.0294 ± 0.000956	–
[4], x1 = 0.0642	0.0514 ± 0.000956	–
[4], x1 = 0.0933	0.0672 ± 0.0012	–
[4], x1 = 0.1207	0.0813 ± 0.0012	–
[4], x1 = 0.1707	0.0978 ± 0.00143	–
[4], x1 = 0.2154	0.109 ± 0.00143	–
[4], x1 = 0.2917	0.12 ± 0.00167	–
[4], x1 = 0.3543	0.122 ± 0.00167	–
[4], x1 = 0.4516	0.117 ± 0.00143	–
[4], x1 = 0.5527	0.106 ± 0.00143	–
[4], x1 = 0.6222	0.0949 ± 0.0012	–
[4], x1 = 0.7119	0.077 ± 0.0012	–
[4], x1 = 0.7671	0.0652 ± 0.000956	–
[4], x1 = 0.8317	0.0483 ± 0.000717	–
[4], x1 = 0.8682	0.0375 ± 0.000717	–
[4], x1 = 0.9081	0.0282 ± 0.000478	–
[4], x1 = 0.9518	0.0148 ± 0.000478	–
